Here are results for 15 compounds from patent US20210284621A1 (priority 2018, published 2021).

The structures appear in SMILES notation.

The inhibition is the change of the read-out against control, counted positive when it falls. Usually Ki stands for a dissociation constant, usually derived from enzyme kinetics or from competition with a known ligand. Low readings indicate a stronger hold on the target, high ones a looser hold on the target.

The target in one assay is CB1 receptor (Homo sapiens, UniProt P21554). The assay can be described thus: CB1 competitive radioligand binding assay ([3H] SR141716A). Also noted: expressed in transfected cells; host or cells: Chem-1 cells. The settings on record: for inhibition at 0.5 µM: 0.5 μM compound, 2.0 nM [3H] SR141716A, 90 min 37° C. The protocol:
(§1) J Med Chem. 41(26): 5177-5187 (1998); and Munro S., et al. Molecular characterization of a peripheral receptor for cannabinoids. Nature 365:61-65 (1993).
CB1 Radioligand Binding Assay: A compound of the invention (0.5 μM in 1% DMSO) was incubated with Chem-1 cells expressing human recombinant CB1 receptor in buffer (50 mM HEPES, pH 7.4, 5 mM MgCl2, 1 mM CaCl2, 0.2% BSA) for 90 minutes at 37° C. in the presence of 2.0 nM [H^3] SR141716A (CB1 radioligand). % Inhibition was determined as a function of radioligand binding to the CB1 receptor.

Another assay concerns the target CB2 receptor (Homo sapiens, UniProt P34972). The assay can be described thus: CB2 competitive radioligand binding assay ([3H] WIN-55,212-2). Set-up: expressed in transfected cells; host or cells: CHO-K1 cells. As to conditions: for inhibition at 0.05 µM: 0.05 μM compound, 2.4 nM [3H] WIN-55,212-2, 90 min 37° C. How it is done:
as §1
CB2 Radioligand Binding Assay: A compound of the invention (0.05 μM in 1% DMSO) was incubated with CHO-K1 cells expressing human recombinant CB2 receptor in buffer (20 mM HEPES, pH 7.0, 0.5% BSA) for 90 minutes at 37° C. in the presence of 2.4 nM [H^3] WIN-55,212-2 (CB2 radioligand). % Inhibition was determined as a function of radioligand binding to the […].

Another assay has as its system LPS-induced PBMCs. The assay can be described thus: Inflammatory cytokine release from LPS-induced PBMCs (Luminex). It counts as cell-based, human. As to conditions: fold change from LPS-treated PBMCs, compounds 10 μM (DEX 1 μg/ml) 2 h, then LPS 0.1 μg/ml 24 h, negative = reduced. The protocol: Compounds of the invention were assayed for their effect on inflammatory cytokine release from lipopolysaccharides (LPS)-induced PBMCs, isolated from a human blood sample, the results of which are provided in Table 7 as fold change. Exemplary methods for quantifying secretion of inflammatory cytokines in PBMCs are known in the art, for example, as described in Hailer et al., Infection and Immunity. 68(2):752-759 (2000); and Merlini et al., Frontiers in Immunology. 7:614 (2016); each of which is incorporated herein by reference with respect to methods for evaluating cytokine release in PBMCs.
In brief, human blood samples from healthy volunteers were collected and PBMCs were isolated. PBMCs were cultured and each compound was assayed in triplicate at a final concentration of 10 μM for 2 hours. 1 μg/ml dexamethasone (DEX) served as a positive control. LPS was added at a final concentration of 0.1 μg/ml and further incubated for 24 hours. At the end of the incubation, the supernatants were collected and the levels of a panel of secreted cytokines were measured by a Human Magnetic Luminex® assay (R&D). The results in Table 7 are presented as a fold change from LPS-treated PBMCs. Reduced levels are expressed by negative values. OOR denotes values that are out of the standard curve range for the specific cytokine and thus, could not be accurately measured. Cytotoxicity was also determined. Compounds with cytotoxicity ≥50% was considered cytotoxic. Baseline cytotoxicity of untreated PBMCs was 17% and all compounds presented in Table 7 induced cytotoxicity below 25%.

The mark [1] stands for this setting: OOR = out of standard curve range.

Chain of CB2 receptor (P34972 whole entry): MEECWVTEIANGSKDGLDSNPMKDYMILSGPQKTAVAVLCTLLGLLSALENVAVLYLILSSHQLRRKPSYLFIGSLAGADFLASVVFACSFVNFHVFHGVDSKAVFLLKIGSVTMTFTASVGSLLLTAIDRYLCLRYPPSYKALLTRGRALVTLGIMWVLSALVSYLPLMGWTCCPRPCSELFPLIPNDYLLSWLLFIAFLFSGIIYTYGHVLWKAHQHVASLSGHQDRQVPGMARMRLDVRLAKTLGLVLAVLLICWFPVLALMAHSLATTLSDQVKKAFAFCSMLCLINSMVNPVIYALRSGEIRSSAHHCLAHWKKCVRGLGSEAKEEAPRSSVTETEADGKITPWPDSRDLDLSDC
Chain of CB1 receptor (P21554 whole entry): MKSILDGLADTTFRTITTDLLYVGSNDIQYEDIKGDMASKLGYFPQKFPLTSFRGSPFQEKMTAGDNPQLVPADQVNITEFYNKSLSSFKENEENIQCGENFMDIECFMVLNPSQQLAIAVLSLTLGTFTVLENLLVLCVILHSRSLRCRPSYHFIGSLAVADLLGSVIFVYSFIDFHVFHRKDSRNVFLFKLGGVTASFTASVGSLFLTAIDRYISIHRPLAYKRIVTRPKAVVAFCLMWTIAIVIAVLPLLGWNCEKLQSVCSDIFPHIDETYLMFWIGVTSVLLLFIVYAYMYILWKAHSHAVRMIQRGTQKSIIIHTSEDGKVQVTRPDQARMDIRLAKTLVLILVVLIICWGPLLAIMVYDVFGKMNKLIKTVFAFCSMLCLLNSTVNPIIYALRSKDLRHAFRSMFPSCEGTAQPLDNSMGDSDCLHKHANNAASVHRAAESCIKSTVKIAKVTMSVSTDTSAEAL

Turning to `CCCCCCC(C)(C)c1cc(OC)c2c(c1)OC(C)(C)[C@@H]1CC=C(C(=O)NCCO)C[C@@H]21` [Compound 7, (6aR,10aR)-N-(2-Hydroxyethyl)-1-methoxy-6,6-dimethyl-3-(2-methyloctan-2-yl)-6a,7,10,10a-tetrahydro-6H-benzo[c]chromene-9-carboxamide], the inhibition at 0.5 µM on CB1 receptor came out at 21%. In addition, the inhibition at 0.05 µM at CB2 receptor was 11%.
Regarding `CCCCCCC(C)(C)c1cc(O)c2c(c1)OC(C)(C)[C@@H]1CC=C(C(=O)Oc3ccc(C(N)=S)cc3)C[C@@H]21` [Compound 10, 4-Carbamothioylphenyl (6aR,10aR)-1-hydroxy-6,6-dimethyl-3-(2-methyloctan-2-yl)-6a,7,10,10a-tetrahydro-6H-benzo[c]chromene-9-carboxylate], on CB1 receptor, the inhibition at 0.5 µM stood at 7%. For the same compound, on CB2 receptor, the inhibition at 0.05 µM is 11%.
In the assay on LPS-induced PBMCs, `C[C@@H]1C[C@H]2[C@@H]3CCC4=CC(=O)C=C[C@]4(C)[C@@]3(F)[C@@H](O)C[C@]2(C)[C@@]1(O)C(=O)CO` [DEX, dexamethasone, reference compound] registered an IL17A of −1.5 fold change, an IL-1β of −3.8 fold change, an IL-4 of −1.5 fold change and an IL-6 of −3.9 fold change. Also, in the assay with LPS-induced PBMCs, the IL-8 is recorded as −1.0 fold change, the IL-10 was −2.0 fold change, the MCP-1 was −1.7 fold change and the TNFα was −6.0 fold change. Besides, in the assay on LPS-induced PBMCs (setting [1]), the “IL-12 (p70)” value is on record as −4.5 fold change and the L-31 is given as −1.6 fold change.
`CCCC(C)(C)c1cc(O)c2c(c1)OC(C)(C)[C@@H]1CC=C(C(=O)NC(C)(C)C(F)(F)F)C[C@@H]21` [Compound 101]: the figures for the Ki at CB1 receptor and at CB2 receptor were greater than 5000 nM and 84 nM, respectively. Further, the “Fold Selectivity (CB1/CB2)” value at CB2 receptor (Table 3, ratio of Ki CB1/CB2) is listed as greater than 60.
In the case of `CCCCCCC(C)(C)c1cc(O)c2c(c1)OC(C)(C)[C@@H]1CC=C(C(=O)N[C@H]3CC[C@H](O)CC3)C[C@@H]21` [Compound 17, (6aR,10aR)-1-Hydroxy-N-(trans-4-hydroxycyclohexyl)-6,6-dimethyl-3-(2-methyloctan-2-yl)-6a,7,10,10a-tetrahydro-6H-benzo[c]chromene-9-carboxamide], the inhibition at 0.5 µM at CB1 receptor came out at 23%. Also, on CB2 receptor, the inhibition at 0.05 µM stood at 8%.
Turning to `CCCCCCC(C)(C)c1cc(O)c2c(c1)OC(C)(C)[C@@H]1CC=C(C(N)=O)C[C@@H]21` [Compound 4, (6aR,10aR)-1-Hydroxy-6,6-dimethyl-3-(2-methyloctan-2-yl)-6a,7,10,10a-tetrahydro-6H-benzo[c]chromene-9-carboxamide], the inhibition at 0.5 µM on CB1 receptor was 70%. In addition, the inhibition at 0.05 µM on CB2 receptor was determined as 57%.
With `CCCCCCC(C)(C)c1cc(O)c2c(c1)OC(C)(C)[C@@H]1CC=C(C(=O)N[C@H]3CC[C@@H](O)CC3)C[C@@H]21` [Compound 18, (6aR,10aR)-1-Hydroxy-N-(cis-4-hydroxycyclohexyl)-6,6-dimethyl-3-(2-methyloctan-2-yl)-6a,7,10,10a-tetrahydro-6H-benzo[c]chromene-9-carboxamide], the inhibition at 0.5 µM on CB1 receptor stood at 5%. For the same compound, the inhibition at 0.05 µM on CB2 receptor was determined as 26%.
On to `CCCCCCCC(C)(C)c1cc(O)c2c(c1)OC(C)(C)[C@@H]1CC=C(C(=O)O)C[C@@H]21` [Compound 9, (6aR,10aR)-1-Hydroxy-6,6-dimethyl-3-(2-methylnonan-2-yl)-6a,7,10,10a-tetrahydro-6H-benzo[c]chromene-9-carboxylic acid], for which the inhibition at 0.5 µM at CB1 receptor is -8%. The inhibition at 0.05 µM at CB2 receptor came to 18%.
On to `CCCCCCC(C)(C)c1cc(O)c2c(c1)OC(C)(C)[C@@H]1CC=C(C(=O)N[C@@H](C)CCO)C[C@@H]21` [Compound 98, (6aR,10aR)-1-hydroxy-N—((S)-4-hydroxybutan-2-yl)-6,6-dimethyl-3-(2-methyloctan-2-yl)-6a,7,10,10a-tetrahydro-6H-benzo[c]chromene-9-carboxamide], for which the results for the inhibitory constant (Ki) at CB1 receptor and on CB2 receptor were 320 nM and 10 nM, respectively. The “Fold Selectivity (CB1/CB2)” value on CB2 receptor (Table 3, ratio of Ki CB1/CB2) was 32.0.
As to `CC(C)(CCCCCC(=O)O)c1cc(O)c2c(c1)OC(C)(C)[C@@H]1CC=C(C(=O)O)C[C@@H]21` [Compound 111, (6aR,10aR)-3-(7-carboxy-2-methylheptan-2-yl)-1-hydroxy-6,6-dimethyl-6a,7,10,10a-tetrahydro-6H-benzo[c]chromene-9-carboxylic acid], the inhibition constant Ki on CB1 receptor and on CB2 receptor was greater than 3000 nM in each case.
Turning to `CCCCCCC(C)(C)c1c(Cl)c(O)c2c(c1Cl)OC(C)(C)[C@@H]1CC=C(C(=O)O)C[C@@H]21` [Compound 113, (6aR,10aR)-2,4-dichloro-1-hydroxy-6,6-dimethyl-3-(2-methyloctan-2-yl)-6a,7,10,10a-tetrahydro-6H-benzo[c]chromene-9-carboxylic acid], the Ki at CB1 receptor and on CB2 receptor was greater than 3000 nM each time.
In the case of `CCCCCCC(C)(C)c1cc(OC(C)=O)c2c(c1)OC(C)(C)[C@@H]1CC=C(C#N)C[C@@H]21` [Compound 19, (6aR,10aR)-9-Cyano-6,6-dimethyl-3-(2-methyloctan-2-yl)-6a,7,10,10a-tetrahydro-6H-benzo[c]chromen-1-yl acetate], at CB1 receptor, the affinity corresponds to a Ki of 6.8 nM and the inhibition at 0.5 µM amounted to 111%. In addition, on CB2 receptor, the affinity corresponds to a Ki of 1.9 nM and the inhibition at 0.05 µM is 115%. For the same compound, the “Fold Selectivity (CB1/CB2)” value on CB2 receptor (Table 2, ratio of Ki CB1/CB2) is on record as 4.
For `CCCCCCC(C)(C)c1cc(O)c2c(c1)OC(C)(C)[C@@H]1CC=C(C(=O)NC#N)C[C@@H]21` [Compound 106, (6aR,10aR)-N-cyano-1-hydroxy-6,6-dimethyl-3-(2-methyloctan-2-yl)-6a,7,10,10a-tetrahydro-6H-benzo[c]chromene-9-carboxamide], the values for the Ki at CB1 receptor and at CB2 receptor were 803 nM and 810 nM, respectively. The “Fold Selectivity (CB1/CB2)” value on CB2 receptor (Table 3, ratio of Ki CB1/CB2) turned out to be 1.0.
As to `CCCCCCC(C)(C)c1cc(O)c2c(c1)OC(C)(C)[C@@H]1CC=C(C(=O)NC34CC5CC(CC(O)(C5)C3)C4)C[C@@H]21` [Compound 43, (6aR,10aR)-1-hydroxy-N-(3-hydroxyadamantan-1-yl)-6,6-dimethyl-3-(2-methyloctan-2-yl)-6a,7,10,10a-tetrahydro-6H-benzo[c]chromene-9-carboxamide], the results for the Ki on CB1 receptor and at CB2 receptor were 891 nM and 75.6 nM, respectively. Further, on CB2 receptor (Table 3, ratio of Ki CB1/CB2), the “Fold Selectivity (CB1/CB2)” value is reported as 11.8.
`CCCCCCC(C)(C)c1cc(O)c2c(c1)OC(C)(C)[C@@H]1CC=C(C(=O)NC34CC5CC(CC(C5)C3)C4)C[C@@H]21` [Compound 42, (6aR,10aR)-N-(adamantan-1-yl)-1-hydroxy-6,6-dimethyl-3-(2-methyloctan-2-yl)-6a,7,10,10a-tetrahydro-6H-benzo[c]chromene-9-carboxamide]: the Ki on CB1 receptor came to 59.5 nM; at CB2 receptor, 175 nM. Further, at CB2 receptor (Table 3, ratio of Ki CB1/CB2), the “Fold Selectivity (CB1/CB2)” value came to 0.3.
